Here are results for 1 compound from patent US6139538A, “Iontophoretic agent delivery to the female reproductive tract” (Iotek, Inc., priority 1997, dated 2000).

For the series the following is noted: 20 minutes.
Setting [1] is: Experiment #1, active (A1, A2, A3): 4% lidocaine solution, 1 mA.
The mark [2] stands for this setting: Experiment #1, passive (P1, P2, P3): 4% lidocaine solution, no current.
Where [3] appears, read: Experiment #2, active (A1, A2, A3): 4% lidocaine solution, 1 mA.

Several values for one entry are separate records, joined by “and”; a condition that tells them apart may be missing. Identical values can stand only once. Like-named read-outs stand apart in the source and are kept apart here.

Description: Two identical experiments compared iontophoretic delivery of an anesthetic into the uterine wall with passive delivery of the anesthetic into the uterine wall. Each experiment was conducted using segments of porcine uteri. In the first experiment, there were three trials of iontophoretic delivery using fresh segments of porcine uteri from the first pig and three trials of passive delivery using fresh segments of porcine uteri from the first pig. This procedure was repeated in the second experiment using segments of porcine uteri from the second pig. The weight of the pig for the first experiment was 110 lbs., and the weight of the pig for the second experiment was 120 lbs.
When running each trial for both the first and second experiments, the segment of porcine uterus was placed between two half diffusion cells, a donor cell and a receptor cell. […] The receptor cell was filled with isotonic saline. […] The tissue samples were analyzed using high pressure liquid chromatography (HPLC).
For the active delivery trials in each experiment, a donor or delivery electrode (anode) of Ag was placed in the donor cell and a receptor or return electrode (cathode) of AgCl was placed in the receptor cell. A 1 mA current was then conducted between the donor and receptor electrodes for 20 minutes. For the passive delivery trials in each experiment, the segments of porcine uteri were left in the diffusion cell opening between the donor solution and the receptor solution for 20 minutes.

On to `CCN(CC)CC(=O)Nc1c(C)cccc1C` [lidocaine], for which, under setting [1], the “Total μg in tissue” value is 604.6 µg and 600.2 µg and 494.6 µg; the μg/mL of lidocaine was 120.9 µg/mL and 120.0 µg/mL and 98.9 µg/mL. Under setting [2], the “Total μg in tissue” value is 131.8 µg and 95.5 µg and 172.1 µg; the μg/mL of lidocaine is 26.4 µg/mL and 19.1 µg/mL and 34.4 µg/mL. For the same compound, under setting [3], the “Total μg/g in tissue” value was 702.3 µg/g and 808.2 µg/g and 781.1 µg/g; the μg/mL of lidocaine was 140.5 µg/mL and 161.6 µg/mL and 156.2 µg/mL.
